Where two headings read alike, the source gives them in different places.

This passage reports IC50 results from patent US20190134005A1 (BioMarin Pharmaceutical Inc., priority 2016, published 2019).

The assay has as its target T1, human CGT (Homo sapiens, UniProt Q16880).
T1 sequence (Q16880 21-541): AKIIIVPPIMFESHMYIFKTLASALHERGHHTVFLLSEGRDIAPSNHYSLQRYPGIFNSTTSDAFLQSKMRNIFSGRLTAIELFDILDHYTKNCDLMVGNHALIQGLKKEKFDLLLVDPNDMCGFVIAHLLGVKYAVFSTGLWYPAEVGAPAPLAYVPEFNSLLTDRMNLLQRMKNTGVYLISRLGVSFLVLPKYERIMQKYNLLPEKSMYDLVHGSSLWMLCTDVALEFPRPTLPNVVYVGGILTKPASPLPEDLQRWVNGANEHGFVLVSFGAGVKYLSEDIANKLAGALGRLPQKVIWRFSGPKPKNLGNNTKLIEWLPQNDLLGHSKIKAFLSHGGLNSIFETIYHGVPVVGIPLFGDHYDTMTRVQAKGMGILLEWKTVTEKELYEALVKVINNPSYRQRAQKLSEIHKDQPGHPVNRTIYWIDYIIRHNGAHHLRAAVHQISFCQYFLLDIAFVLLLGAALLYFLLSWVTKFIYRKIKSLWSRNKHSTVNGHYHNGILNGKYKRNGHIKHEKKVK
The experiment in a line: Assay 1: CGT Enzymatic Assay (RapidFire/MS/MS, 0.01% Tween 80). The settings on record: Table 1, Compounds of Formula (I) and Formula (II), CGT enzymatic assay, read-out: IC50. The class given is biochemical.

Setting [1] is: C6-NBD-dihydro-galactosylceramide readout.

For `CC(=O)c1cccc(C2(O)[C@H](C)N(c3ccc(Cl)cc3)C(=O)N2c2ccc(Cl)cc2)c1` (single isomer, unassigned) [Compound 136-1], the IC50 fell in the range of 1000 to 10000 nM. Take `COC(=O)C1(O)[C@H](C)N(c2ccc(Br)cc2)C(=O)N1c1ccc(Br)cc1` (single isomer, unassigned) [Compound 84-1]: the IC50 was greater than 50000 nM. On the same count and under the same terms, with `C[C@@H]1N(c2ccc(Br)cc2)C(=O)N(c2ccc(Br)cc2)C1(O)c1cccc(C(F)(F)F)c1` (stereo partly drawn) [Compound 74-1, (5S)-1,3-bis(4-bromophenyl)-4-hydroxy-5-methyl-4-(3-(trifluoromethyl)phenyl)imidazolidin-2-one] the figure was less than 1000 nM; with `CCCC1(C)N(c2ccc(Cl)cc2)C(=O)N(c2ccc(Cl)cc2)C1(O)c1cccc(OC(F)(F)F)c1` (centres unmarked) [Example 170, 1,3-bis(4-chlorophenyl)-4-hydroxy-5-methyl-5-propyl-4-(3-(trifluoromethoxy)phenyl)imidazolidin-2-one], less than 1000 nM; with `Cc1ccc(C2(O)CN(c3ccc(Br)cc3)C(=O)N2c2ccc(Br)cc2)cc1` (centres unmarked) [Example 23, 1,3-bis(4-bromophenyl)-4-hydroxy-4-(p-tolyl)imidazolidin-2-one], greater than 50000 nM. The same measure, in the same setting: under `Cc1cccc([C@@]2(C)C(O)N(c3ccc(Cl)cc3)C(=O)N2c2ccc(Cl)cc2)c1` (single isomer, unassigned) [Example 222-1] stands 10000 to 50000 nM; under `O=C1N(c2ccc(Br)cc2)C(=O)C(O)(c2ccc(OC3CCCCC3)cc2)N1c1ccc(Br)cc1` (centres unmarked) [Example 169, 1,3-bis(4-bromophenyl)-5-(4-(cyclohexyloxy)phenyl)-5-hydroxyimidazolidine-2,4-dione], greater than 50000 nM; under `O=C1N(c2ccc(Cl)cc2)CC(O)(c2ccccc2)N1c1ccc(Br)cc1` (centres unmarked) [Example 38, 3-(4-bromophenyl)-1-(4-chlorophenyl)-4-hydroxy-4-phenylimidazolidin-2-one], 10000 to 50000 nM. Consider `C[C@@H]1N(c2ccc(Cl)cc2)C(=O)N(c2ccc(Cl)cc2)C1(O)c1cccc(C(C)(C)O)c1` (stereo partly drawn) [Compound 140-1, (5S)-1,3-bis(4-chlorophenyl)-4-hydroxy-4-(3-(2-hydroxypropan-2-yl)phenyl)-5-methylimidazolidin-2-one], for which the IC50 is greater than 50000 nM. Still for that read-out and setting: under `CC1N(c2ccc(Br)cc2)C(=O)N(c2ccc(Br)cc2)C1(O)c1ccccc1` (centres unmarked) [Example 13] stands less than 1000 nM.

With `N#Cc1cccc(C2(O)N(c3ccc(Cl)cc3)C(=O)N(c3ccc(Cl)cc3)C23CC(F)(F)C3)c1` (centres unmarked) [Compound 305, 3-(5,7-bis(4-chlorophenyl)-2,2-difluoro-8-hydroxy-6-oxo-5,7-diazaspiro[3.4]octan-8-yl)benzonitrile], the IC50 under setting [1] is less than 1000 nM. Consider `CC1(C)N(c2ccc(Cl)cc2)C(=O)N(c2ccc(Cl)cc2)C1(O)c1cc(Br)cc(C#N)c1` (centres unmarked) [Example 158, 3-(1,3-bis(4-chlorophenyl)-4-hydroxy-5,5-dimethyl-2-oxoimidazolidin-4-yl)-5-bromobenzonitrile], for which the IC50 is less than 1000 nM. In the case of `O=C1N(c2ccc(Cl)cc2)CC(O)(c2cc(Cl)cc(Br)c2)N1c1ccc(Cl)cc1` (centres unmarked) [Compound 98, 4-(3-bromo-5-chlorophenyl)-1,3-bis(4-chlorophenyl)-4-hydroxyimidazolidin-2-one], the IC50 was in the range of 1000 to 10000 nM. As for `CCOc1cccc(C2(O)CN(c3ccc(Br)cc3)C(=O)N2c2ccc(Br)cc2)c1` (centres unmarked) [Compound 79, 1,3-bis(4-bromophenyl)-4-(3-ethoxyphenyl)-4-hydroxyimidazolidin-2-one], the IC50 is 1000 to 10000 nM. On the same count and under the same terms, with `O=C1N(c2ccc(Br)cc2)C(O)[C@](c2ccccc2)(C2CC2)N1c1ccc(Br)cc1` (stereo partly drawn) [Example 209-2, (4R)-1,3-bis(4-bromophenyl)-4-cyclopropyl-5-hydroxy-4-phenylimidazolidin-2-one] the figure was less than 1000 nM; with `O=C1N(c2ccc(Cl)cc2)[C@@]2(CCOC2)[C@](O)(c2cccc(OC(F)(F)F)c2)N1c1ccc(Cl)cc1` [Compound 234-3, (4R,5R)-1,3-bis(4-chlorophenyl)-4-hydroxy-4-(3-(trifluoromethoxy)phenyl)-7-oxa-1,3-diazaspiro[4.4]nonan-2-one], less than 1000 nM; with `C[C@@H]1N(c2ccc(Cl)cc2)C(=O)N(c2ccc(Cl)cc2)C1(O)c1cccc(Br)c1` (stereo partly drawn) [Compound 94-1, (5S)-4-(3-bromophenyl)-1,3-bis(4-chlorophenyl)-4-hydroxy-5-methylimidazolidin-2-one], less than 1000 nM. With `O=C1N(c2ccc(Br)cc2)C(=O)C(O)(c2ccc(OCC3CCCC3)cc2)N1c1ccc(Br)cc1` (centres unmarked) [Example 183, 1,3-bis(4-bromophenyl)-5-(4-(cyclopentylmethoxy)phenyl)-5-hydroxyimidazolidine-2,4-dione], the IC50 is greater than 50000 nM.

On to `COC[C@@]1(C)N(c2ccc(Cl)cc2)C(=O)N(c2ccc(Cl)cc2)[C@@]1(O)c1cccc(OC(F)(F)F)c1` [Compound 296-1, (4R,5R)-1,3-bis(4-chlorophenyl)-4-hydroxy-5-(methoxymethyl)-5-methyl-4-(3-(trifluoromethoxy)phenyl)imidazolidin-2-one], for which the IC50 under setting [1] lay within 1000 to 10000 nM. For `CCc1ccc(N2C(=O)N(c3ccc(CC)cc3)C(O)(c3cccc(C#N)c3)[C@H]2C)cc1` (single isomer, unassigned) [Compound 104-2], the 50% inhibitory concentration (IC50) is less than 1000 nM. Consider `CC1(C)N(c2ccc(C#N)cc2)C(=O)N(c2ccc(Cl)cc2)C1(O)c1cccc(C#N)c1` (centres unmarked) [Example 309, 3-(3-(4-chlorophenyl)-1-(4-cyanophenyl)-4-hydroxy-5,5-dimethyl-2-oxoimidazolidin-4-yl)benzonitrile], for which the IC50 under setting [1] was less than 1000 nM.

For `N#Cc1ccc(N2C(=O)N(c3ccc(Cl)cc3)C(O)(c3cccc(C#N)c3)C23CCC3)cc1` (centres unmarked) [Compound 268, 3-(7-(4-chlorophenyl)-5-(4-cyanophenyl)-8-hydroxy-6-oxo-5,7-diazaspiro[3.4]octan-8-yl)benzonitrile], the IC50 under setting [1] is less than 1000 nM. Regarding `CC[C@@H]1N(c2ccc(Cl)cc2)C(=O)N(c2ccc(Cl)cc2)C1(O)c1cccc(C)c1` (stereo partly drawn) [Compound 75-1, (5S)-1,3-bis(4-chlorophenyl)-5-ethyl-4-hydroxy-4-(m-tolyl)imidazolidin-2-one], the IC50 was less than 1000 nM.

Regarding `CC(C)[C@H]1N(c2ccc(C(F)(F)F)cc2)C(=O)N(c2ccc(C(F)(F)F)cc2)C1(O)c1cccc(OC(F)(F)F)c1` (single isomer, unassigned) [Example 196-2], the IC50 is less than 1000 nM. Consider `N#Cc1cccc(C2(O)N(c3ccc(Cl)cc3)C(=O)N(c3ccc(Cl)cc3)[C@]23CCOC3)c1` (stereo partly drawn) [Example 221-1, 3-((5S)-1,3-bis(4-chlorophenyl)-4-hydroxy-2-oxo-7-oxa-1,3-diazaspiro[4.4]nonan-4-yl)benzonitrile], for which the IC50 is less than 1000 nM. Same read-out and setting: with `O=C1N(c2ccc(Cl)cc2)CC(O)(c2cccc(C3CC3)c2)N1c1ccc(Cl)cc1` (centres unmarked) [Compound 78, 1,3-bis(4-chlorophenyl)-4-(3-cyclopropylphenyl)-4-hydroxyimidazolidin-2-one] the figure was 1000 to 10000 nM. On to `Cc1ccc(N2C(=O)N(c3ccc(C#N)cc3)C3(CCC3)C2(O)c2cccc(C#N)c2)cc1` (centres unmarked) [Compound 280, 3-(5-(4-cyanophenyl)-8-hydroxy-6-oxo-7-(p-tolyl)-5,7-diazaspiro[3.4]octan-8-yl)benzonitrile], for which the IC50 under setting [1] is less than 1000 nM. Regarding `COC[C@]1(C)N(c2ccc(Cl)cc2)C(=O)N(c2ccc(Cl)cc2)C1(O)c1cccc(C#N)c1` (single isomer, unassigned) [Compound 297-2], the IC50 under setting [1] was less than 1000 nM. On to `CC1N(c2ccccc2)C(=O)N(c2ccc(Br)cc2)C1(O)c1cccc(OC(F)(F)F)c1` (centres unmarked) [Example 229, 3-(4-bromophenyl)-4-hydroxy-5-methyl-1-phenyl-4-(3-(trifluoromethoxy)phenyl)imidazolidin-2-one], for which the IC50 is less than 1000 nM. Same read-out and setting: with `CCC[C@H]1N(c2ccc(Cl)cc2)C(=O)N(c2ccc(Cl)cc2)C1(O)c1cccc(C(F)(F)F)c1` (stereo partly drawn) [Compound 87-2, (5R)-1,3-bis(4-chlorophenyl)-4-hydroxy-5-propyl-4-(3-(trifluoromethyl)phenyl)imidazolidin-2-one] the figure was less than 1000 nM; with `Cc1cccc(C2(O)[C@@H](C)N(c3ccc(Br)cc3)C(=O)N2c2ccc(Br)cc2)c1` (some centres unmarked) [Example 29-2], less than 1000 nM; with `C[C@H]1N(c2ccc(Cl)cc2)C(=O)N(c2ccc(Cl)cc2)C1(O)c1cccc(C(F)(F)F)c1` (stereo partly drawn) [Compound 77-2, (5R)-1,3-bis(4-chlorophenyl)-4-hydroxy-5-methyl-4-(3-(trifluoromethyl)phenyl)imidazolidin-2-one], less than 1000 nM. Same read-out and setting: under `CCCC[C@H]1N(c2ccc(Cl)cc2)C(=O)N(c2ccc(Cl)cc2)C1(O)c1cccc(C#N)c1` (stereo partly drawn) [Compound 116-2, 3-((5R)-5-butyl-1,3-bis(4-chlorophenyl)-4-hydroxy-2-oxoimidazolidin-4-yl)benzonitrile] stands less than 1000 nM. Same read-out and setting: with `CCC[C@]1(C)N(c2ccc(Cl)cc2)C(=O)N(c2ccc(Cl)cc2)C1(O)c1cccc(OC(F)(F)F)c1` (single isomer, unassigned) [Example 170-2] the figure was less than 1000 nM; with `CC1(C)N(c2ccc(Cl)cc2)C(=O)N(c2ccc(Cl)cc2)C1(O)c1cccnc1` (centres unmarked) [Example 189, 1,3-bis(4-chlorophenyl)-4-hydroxy-5,5-dimethyl-4-(pyridin-3-yl)imidazolidin-2-one], less than 1000 nM.
